Assay results from PMC12349723, “Computationally accelerated identification of P-glycoprotein inhibitors” (PLOS One, 2025).

system: not listed separately; test: SWISS-ADME computational analysis of chemical properties; settings: predicted aqueous solubility compared to that observed in the laboratory
Excerpt: (§1) Identifying P-gp inhibitors that are not transport substrates remains inherently challenging. To that end, computational tools such as the SWISS-ADME server attempt to use a molecule’s unique chemical and structural characteristics to predict whether it is likely to be a P-gp transport substrate. Our LC-MS/MS assays allowed us to retroactively test the validity of predictions from SWISS-ADME. […] Alternative identifiers for the molecules identified in this study are shown in S7 Table.
(§2) S1 Table. Known P-gp Inhibitors and Predicted Chemical Properties. A non-exhaustive list of known P-gp inhibitors and their selected chemical properties ^[64, 65]. Clinical trial outcomes were adapted from ^[10, 11]. Compounds were evaluated using the SWISS-ADME server ^[54]. […] “Predicted P-gp Substrate” - predicted by SWISS-ADME to be a transport substrate of P-gp. “Known P-gp Substrate” – In addition to being P-gp inhibitors, these molecules are: known transport substrates of P-gp, known non-transport substrates of P-gp, unknown whether it is a transport substrate of P-gp ^[66-68]. If the molecule is designated in a specific generation of P-gp inhibitors - First Generation P-gp inhibitors, Second generation P-gp inhibitors, Third generation P-gp inhibitors.

Row | Structure (SMILES) | Correct Water Solubility Prediction?
1 | COc1ccc(OC)c(NC(=O)c2nnn(-c3ccc4noc(-c5ccccc5)c4c3)c2C)c1 [Compound 71, COc1ccc(OC)c(NC(=O)c2nnn(c2C)-c2ccc3noc(-c4ccccc4)c3c2)c1] | Yes

system: P-gp; test: SWISS-ADME prediction of P-gp transport substrate; settings: prediction compared to the LC-MS/MS intracellular accumulation data
Excerpt: as §1, §2

Row | Structure (SMILES) | Correct P-gp Substrate Prediction?
2 | COc1ccc(OC)c(NC(=O)c2nnn(-c3ccc4noc(-c5ccccc5)c4c3)c2C)c1 [Compound 71, COc1ccc(OC)c(NC(=O)c2nnn(c2C)-c2ccc3noc(-c4ccccc4)c3c2)c1] | No

target: T1, P-gp (Homo sapiens, UniProt P08183); test: Top Hit classification from combined in vitro criteria; settings: reverse MDR, do not increase PTX toxicity in chemo-sensitive cancer cells, non-toxic to noncancerous cells, not P-gp substrates
T1 construct: The MDR, P-gp overexpressing DU145-TXR cells were maintained under positive selection pressure; endogenous in cells; host or cells: DU145-TXR (paclitaxel-resistant sub-line of DU145 human prostate cancer cells)
T1 sequence (P08183 whole entry): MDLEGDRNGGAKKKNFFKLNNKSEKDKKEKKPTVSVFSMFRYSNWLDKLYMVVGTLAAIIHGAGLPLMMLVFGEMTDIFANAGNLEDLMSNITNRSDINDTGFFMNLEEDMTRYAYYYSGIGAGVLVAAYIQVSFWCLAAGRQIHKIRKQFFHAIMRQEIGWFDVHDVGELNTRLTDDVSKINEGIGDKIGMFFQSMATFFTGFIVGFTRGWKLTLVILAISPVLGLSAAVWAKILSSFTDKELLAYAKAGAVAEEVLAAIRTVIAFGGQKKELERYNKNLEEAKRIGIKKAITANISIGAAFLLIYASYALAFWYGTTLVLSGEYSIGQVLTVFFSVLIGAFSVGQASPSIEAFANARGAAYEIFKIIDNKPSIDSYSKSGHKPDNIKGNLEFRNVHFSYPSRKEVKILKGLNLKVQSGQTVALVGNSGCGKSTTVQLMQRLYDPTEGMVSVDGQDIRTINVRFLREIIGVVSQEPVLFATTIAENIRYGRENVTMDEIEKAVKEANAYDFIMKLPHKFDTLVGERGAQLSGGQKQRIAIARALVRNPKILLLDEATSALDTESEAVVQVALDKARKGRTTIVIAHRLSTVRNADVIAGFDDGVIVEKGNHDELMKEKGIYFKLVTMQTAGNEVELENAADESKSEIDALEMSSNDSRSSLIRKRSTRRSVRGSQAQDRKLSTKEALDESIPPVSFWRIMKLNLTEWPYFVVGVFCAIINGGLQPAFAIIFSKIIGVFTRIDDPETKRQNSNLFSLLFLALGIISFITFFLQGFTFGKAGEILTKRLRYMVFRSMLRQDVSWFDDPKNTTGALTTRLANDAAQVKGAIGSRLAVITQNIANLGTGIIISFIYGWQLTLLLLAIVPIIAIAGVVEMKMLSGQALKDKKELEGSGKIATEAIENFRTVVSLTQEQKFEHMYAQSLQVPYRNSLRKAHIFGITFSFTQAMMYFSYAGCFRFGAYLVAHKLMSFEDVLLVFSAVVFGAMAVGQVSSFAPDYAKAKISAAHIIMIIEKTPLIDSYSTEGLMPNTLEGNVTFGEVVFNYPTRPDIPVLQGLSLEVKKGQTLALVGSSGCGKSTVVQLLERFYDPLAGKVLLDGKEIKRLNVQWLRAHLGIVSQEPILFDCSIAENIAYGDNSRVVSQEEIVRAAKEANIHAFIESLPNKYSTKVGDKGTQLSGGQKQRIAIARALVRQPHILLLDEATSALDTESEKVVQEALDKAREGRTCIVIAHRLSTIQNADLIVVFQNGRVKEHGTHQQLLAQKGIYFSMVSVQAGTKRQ

Row | Structure (SMILES) | Top Hit
3 | COc1ccc(OC)c(NC(=O)c2nnn(-c3ccc4noc(-c5ccccc5)c4c3)c2C)c1 [Compound 71, COc1ccc(OC)c(NC(=O)c2nnn(c2C)-c2ccc3noc(-c4ccccc4)c3c2)c1] | No

system: DU145-TXR cells; test: MTT viability assay, reversal of MDR (re-sensitization to paclitaxel) in P-gp overexpressing DU145-TXR cells; type: cell-based, human; settings: 15 µM compound + 500 nM PTX (Paclitaxel, Taxol); DU145-TXR; mean of 8 samples
Protocol: The chemotherapeutic sensitive DU145 human prostate cancer cells and the multidrug resistant sub-line, DU145-TXR, were generous gifts from Dr. Evan Keller (University of Michigan, Ann Arbor, MI). The MDR, P-gp overexpressing DU145-TXR cells were maintained under positive selection pressure by supplementing complete medium with 10 nM paclitaxel (Acros Organics, NJ). In addition to the aforementioned cell lines, the chemotherapeutic sensitive A2780 ovarian cancer cells (93112519, Sigma) and the multidrug resistant A2780-ADR (93112520, Sigma) were maintained in complete RPMI media consisting of RPMI-1640 with L-glutamine, 10% fetal bovine serum (FBS; Corning), 100 U/mL penicillin and 100 μg/mL streptomycin in a humidified incubator at 37 °C and 5% CO2. The MDR, P-gp overexpressing A2780-ADR cell line was maintained under positive selection pressure by supplementing complete medium with 100 nM doxorubicin (Fisher Scientific, NJ). The non-cancerous HFL1 (human lung fibroblast) cell line cell line was a generous gift from Dr. Robert Harrod (Southern Methodist University, Dallas, TX) and was maintained in complete F12K media consisting of F12K with 10% fetal bovine serum, 100 U/mL penicillin, and 100 µg/mL streptomycin (Gibco). Flasks and 96 well plates that were used with the non-cancerous line HFL1 were pre-treated with 0.1 mg/ml Collagen Type 1 (Gibco) and rinsed with PBS (Fisher).
Culture of the DU145, DU145-TXR, and HFL1 cell lines was performed as described in [8]. Culture of the A2780 and A2780-ADR cell lines was performed as described in [9]. MTT assays were performed as described in [8] with minor modifications. LC-MS/MS accumulation assays were performed as described in {Nanayakkara, 2018 #173} [9] with some modifications. […] The inhibitor concentration was lowered to 15 µM here, as the goal of the study was to identify compounds that were effective in reversing MDR at low concentrations, and to determine if the expanded virtual-assisted methods improved on our first-draft attempt. Compounds 56–98 were pre-screened using Resazurin cell viability assays: cells were incubated with 15 µM compound with or without 500 nM PTX for 48 hours, after which cell survival was assessed similar to [39]. Data represent the mean of two separate experiments, with n = 3 samples per experiment (n = 6 total) (S4 Table). The top performing compounds from this initial screen were re-tested with MTT viability assays against DU145-TXR cells, as described below.
MTT assays measure the reduction of yellow, water soluble 3-(4,5-dimethylthiazol-2-yl)-2,5-diphenyltetrazolium bromide (MTT) to blue, insoluble formazan crystals by cellular reductase processes in living cells. Cells were trypsinized from monolayers and seeded in complete medium in 96 well plates. Cancerous cell lines (DU145, DU145-TXR, A2780, A2780-ADR) were seeded at 3,000 cells per well in complete RPMI medium. The non-cancerous HFL1 line was seeded at 4,000 cells per well in complete F12K medium, in collagen-treated plates (Collagen Type 1, Gibco). Cells were incubated with experimental compounds for 48 hours at 37 °C and 5% CO2 in a humidified incubator. At 48 hours, MTT was added (20 µL/well of 5 mg/mL MTT in PBS) to each well. After incubation for 4 hours, the media was removed, and the formazan crystals were dissolved in 100 µL DMSO per well. Plates containing the semi-adherent A2780 or A2780-ADR lines were spun at 1400 rpm for 3 minutes prior to aspiration of media, and the addition of DMSO. Plates were shaken for 10 minutes at 500 rpm on an Orbital shaker (LabDoctor from MidSci, St Louis, MO). The absorbance was measured at 570 nm using a Bio-Tek Cytation 5 (Bio-Tek, Winooski, VT). The measured absorbance value was correlated with the number of metabolically active cells in that well, corrected for absorbance of media. […]

Row | Structure (SMILES) | % Survival, mean [%]
4 | COc1ccc(OC)c(NC(=O)c2nnn(-c3ccc4noc(-c5ccccc5)c4c3)c2C)c1 [Compound 71, COc1ccc(OC)c(NC(=O)c2nnn(c2C)-c2ccc3noc(-c4ccccc4)c3c2)c1] | 41.6

same assay, conditions: 15 µM compound + 500 nM PTX (Paclitaxel, Taxol); DU145-TXR; trial 1, sample 1

Row | Structure (SMILES) | % Survival [%]
5 | COc1ccc(OC)c(NC(=O)c2nnn(-c3ccc4noc(-c5ccccc5)c4c3)c2C)c1 [Compound 71, COc1ccc(OC)c(NC(=O)c2nnn(c2C)-c2ccc3noc(-c4ccccc4)c3c2)c1] | 48

same assay, conditions: 15 µM compound + 500 nM PTX (Paclitaxel, Taxol); DU145-TXR; trial 1, sample 2

Row | Structure (SMILES) | % Survival [%]
6 | COc1ccc(OC)c(NC(=O)c2nnn(-c3ccc4noc(-c5ccccc5)c4c3)c2C)c1 [Compound 71, COc1ccc(OC)c(NC(=O)c2nnn(c2C)-c2ccc3noc(-c4ccccc4)c3c2)c1] | 45

same assay, conditions: 15 µM compound + 500 nM PTX (Paclitaxel, Taxol); DU145-TXR; trial 1, sample 3

Row | Structure (SMILES) | % Survival [%]
7 | COc1ccc(OC)c(NC(=O)c2nnn(-c3ccc4noc(-c5ccccc5)c4c3)c2C)c1 [Compound 71, COc1ccc(OC)c(NC(=O)c2nnn(c2C)-c2ccc3noc(-c4ccccc4)c3c2)c1] | 45

same assay, conditions: 15 µM compound + 500 nM PTX (Paclitaxel, Taxol); DU145-TXR; trial 1, sample 4

Row | Structure (SMILES) | % Survival [%]
8 | COc1ccc(OC)c(NC(=O)c2nnn(-c3ccc4noc(-c5ccccc5)c4c3)c2C)c1 [Compound 71, COc1ccc(OC)c(NC(=O)c2nnn(c2C)-c2ccc3noc(-c4ccccc4)c3c2)c1] | 51

same assay, conditions: 15 µM compound + 500 nM PTX (Paclitaxel, Taxol); DU145-TXR; trial 2, sample 1

Row | Structure (SMILES) | % Survival [%]
9 | COc1ccc(OC)c(NC(=O)c2nnn(-c3ccc4noc(-c5ccccc5)c4c3)c2C)c1 [Compound 71, COc1ccc(OC)c(NC(=O)c2nnn(c2C)-c2ccc3noc(-c4ccccc4)c3c2)c1] | 33

same assay, conditions: 15 µM compound + 500 nM PTX (Paclitaxel, Taxol); DU145-TXR; trial 2, sample 2

Row | Structure (SMILES) | % Survival [%]
10 | COc1ccc(OC)c(NC(=O)c2nnn(-c3ccc4noc(-c5ccccc5)c4c3)c2C)c1 [Compound 71, COc1ccc(OC)c(NC(=O)c2nnn(c2C)-c2ccc3noc(-c4ccccc4)c3c2)c1] | 33

same assay, conditions: 15 µM compound + 500 nM PTX (Paclitaxel, Taxol); DU145-TXR; trial 2, sample 3

Row | Structure (SMILES) | % Survival [%]
11 | COc1ccc(OC)c(NC(=O)c2nnn(-c3ccc4noc(-c5ccccc5)c4c3)c2C)c1 [Compound 71, COc1ccc(OC)c(NC(=O)c2nnn(c2C)-c2ccc3noc(-c4ccccc4)c3c2)c1] | 36

same assay, conditions: 15 µM compound + 500 nM PTX (Paclitaxel, Taxol); DU145-TXR; trial 2, sample 4

Row | Structure (SMILES) | % Survival [%]
12 | COc1ccc(OC)c(NC(=O)c2nnn(-c3ccc4noc(-c5ccccc5)c4c3)c2C)c1 [Compound 71, COc1ccc(OC)c(NC(=O)c2nnn(c2C)-c2ccc3noc(-c4ccccc4)c3c2)c1] | 42

same assay, conditions: Homo sapiens, 15 µM Compound Alone; DU145-TXR; mean of 8 samples; read-out: % Survival, mean

Row | Structure (SMILES) | viability at 15 µM [%]
13 | COc1ccc(OC)c(NC(=O)c2nnn(-c3ccc4noc(-c5ccccc5)c4c3)c2C)c1 [Compound 71, COc1ccc(OC)c(NC(=O)c2nnn(c2C)-c2ccc3noc(-c4ccccc4)c3c2)c1] | 33.8

same assay, conditions: Homo sapiens, 15 µM Compound Alone; DU145-TXR; trial 1, sample 1; read-out: % Survival

Row | Structure (SMILES) | viability at 15 µM [%]
14 | COc1ccc(OC)c(NC(=O)c2nnn(-c3ccc4noc(-c5ccccc5)c4c3)c2C)c1 [Compound 71, COc1ccc(OC)c(NC(=O)c2nnn(c2C)-c2ccc3noc(-c4ccccc4)c3c2)c1] | 44

same assay, conditions: Homo sapiens, 15 µM Compound Alone; DU145-TXR; trial 1, sample 2; read-out: % Survival

Row | Structure (SMILES) | viability at 15 µM [%]
15 | COc1ccc(OC)c(NC(=O)c2nnn(-c3ccc4noc(-c5ccccc5)c4c3)c2C)c1 [Compound 71, COc1ccc(OC)c(NC(=O)c2nnn(c2C)-c2ccc3noc(-c4ccccc4)c3c2)c1] | 33

same assay, conditions: Homo sapiens, 15 µM Compound Alone; DU145-TXR; trial 1, sample 3; read-out: % Survival

Row | Structure (SMILES) | viability at 15 µM [%]
16 | COc1ccc(OC)c(NC(=O)c2nnn(-c3ccc4noc(-c5ccccc5)c4c3)c2C)c1 [Compound 71, COc1ccc(OC)c(NC(=O)c2nnn(c2C)-c2ccc3noc(-c4ccccc4)c3c2)c1] | 39

same assay, conditions: Homo sapiens, 15 µM Compound Alone; DU145-TXR; trial 1, sample 4; read-out: % Survival

Row | Structure (SMILES) | viability at 15 µM [%]
17 | COc1ccc(OC)c(NC(=O)c2nnn(-c3ccc4noc(-c5ccccc5)c4c3)c2C)c1 [Compound 71, COc1ccc(OC)c(NC(=O)c2nnn(c2C)-c2ccc3noc(-c4ccccc4)c3c2)c1] | 41

same assay, conditions: Homo sapiens, 15 µM Compound Alone; DU145-TXR; trial 2, sample 1; read-out: % Survival

Row | Structure (SMILES) | viability at 15 µM [%]
18 | COc1ccc(OC)c(NC(=O)c2nnn(-c3ccc4noc(-c5ccccc5)c4c3)c2C)c1 [Compound 71, COc1ccc(OC)c(NC(=O)c2nnn(c2C)-c2ccc3noc(-c4ccccc4)c3c2)c1] | 36

same assay, conditions: Homo sapiens, 15 µM Compound Alone; DU145-TXR; trial 2, sample 2; read-out: % Survival

Row | Structure (SMILES) | viability at 15 µM [%]
19 | COc1ccc(OC)c(NC(=O)c2nnn(-c3ccc4noc(-c5ccccc5)c4c3)c2C)c1 [Compound 71, COc1ccc(OC)c(NC(=O)c2nnn(c2C)-c2ccc3noc(-c4ccccc4)c3c2)c1] | 25

same assay, conditions: Homo sapiens, 15 µM Compound Alone; DU145-TXR; trial 2, sample 3; read-out: % Survival

Row | Structure (SMILES) | viability at 15 µM [%]
20 | COc1ccc(OC)c(NC(=O)c2nnn(-c3ccc4noc(-c5ccccc5)c4c3)c2C)c1 [Compound 71, COc1ccc(OC)c(NC(=O)c2nnn(c2C)-c2ccc3noc(-c4ccccc4)c3c2)c1] | 28

same assay, conditions: Homo sapiens, 15 µM Compound Alone; DU145-TXR; trial 2, sample 4; read-out: % Survival

Row | Structure (SMILES) | viability at 15 µM [%]
21 | COc1ccc(OC)c(NC(=O)c2nnn(-c3ccc4noc(-c5ccccc5)c4c3)c2C)c1 [Compound 71, COc1ccc(OC)c(NC(=O)c2nnn(c2C)-c2ccc3noc(-c4ccccc4)c3c2)c1] | 25
